Data published in patent publication US12692235B2, “Fused ring compound and application thereof” (WUHAN LL SCIENCE AND TECHNOLOGY DEVELOPMENT CO., LTD., priority 2019, dated 2026).

Molecular target: T1, hP2X4 (human purinergic P2X receptor subtype 4) (Homo sapiens, UniProt Q99571)
T1 sequence (Q99571 1-404 isoform Q99571-2): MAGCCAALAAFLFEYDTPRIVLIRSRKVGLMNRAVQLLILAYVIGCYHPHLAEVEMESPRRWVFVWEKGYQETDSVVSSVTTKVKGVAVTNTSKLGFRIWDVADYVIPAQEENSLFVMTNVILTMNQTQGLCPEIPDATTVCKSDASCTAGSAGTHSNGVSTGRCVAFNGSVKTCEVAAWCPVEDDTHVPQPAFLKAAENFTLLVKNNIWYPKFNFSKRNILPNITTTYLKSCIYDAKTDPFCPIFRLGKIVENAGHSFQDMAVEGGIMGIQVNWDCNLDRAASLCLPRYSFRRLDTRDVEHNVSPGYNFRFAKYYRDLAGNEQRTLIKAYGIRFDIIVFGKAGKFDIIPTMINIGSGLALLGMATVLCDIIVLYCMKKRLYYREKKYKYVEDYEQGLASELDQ
Conditions: P2X4 IC50 (nM), HEK293 cells stably expressing hP2X4; agonist BZ-ATP 2.5 μM; FLIPR calcium

Compound | IC50
COc1ccc(Oc2ccc3c(S(N)(=O)=O)cc(NC(=O)Cc4ccccc4Cl)cc3n2)cc1 [Compound 72, 2-(2-chlorophenyl)-N-(2-(4-methoxyphenoxy)-5-sulfamoylquinolin-7-yl)acetamide] | 50 to 200 nM
NS(=O)(=O)c1cc(NC(=O)Cc2ccccc2Cl)cc2c1CCN(C(=O)C(F)(F)F)C2 [Compound 114, 2-(2-chlorophenyl)-N-(5-sulfamoyl-2-(2,2,2-trifluoroacetyl)-1,2,3,4-tetrahydroisoquinolin-7-yl) acetamide] | 10 to 50 nM
COc1ccc(Nc2ccc3c(S(N)(=O)=O)cc(NC(=O)Cc4ccccc4Cl)cc3n2)cc1 [Trifluoroacetate of compound 71, 2-(2-chlorophenyl)-N-(2-((4-methoxyphenyl)amino)-5-sulfamoylquinolin-7-yl)acetamide] | 200 to 5000 nM
CC(C)COc1nccc2c(S(N)(=O)=O)cc(NC(=O)Cc3ccccc3Cl)cc12 [Compound 14, 2-(2-chlorophenyl)-N-(1-isobutoxy-5-sulfamoylisoquinolin-7-yl)acetamide] | 10 to 50 nM
NS(=O)(=O)c1cc(NC(=O)Cc2ccccc2Cl)cc2c(OC(F)(F)F)nccc12 [Compound 60, 2-(2-chlorophenyl)-N-(5-sulfamoyl-1-(trifluoromethoxy)isoquinolin-7-yl)acetamide] | 50 to 200 nM
NS(=O)(=O)c1cc(NC(=O)Cc2ccccc2Cl)cc2c1CCN(C1CC1)C2 [Compound 103, 2-(2-chlorophenyl)-N-(2-cyclopropyl-5-sulfamoyl-1,2,3,4-tetrahydroisoquinolin-7-yl)acetamide] | 10 to 50 nM
CC(=O)N1CC(Oc2nccc3c(S(N)(=O)=O)cc(NC(=O)Cc4ccccc4Cl)cc23)C1 [Compound 33, N-(1-((1-acetylazetidin-3-yl)oxo)-5-sulfamoylisoquinolin-7-yl)-2-(2-chlorophenyl)acetamide] | 10 to 50 nM
NS(=O)(=O)c1cc(NC(=O)Cc2ccccc2Cl)cc2c(F)cncc12 [Compound 47, 2-(2-chlorophenyl)-N-(4-fluoro-8-sulfamoylisoquinolin-6-yl)acetamide] | 50 to 200 nM
COc1nccc2c(S(N)(=O)=O)cc(NC(=O)Cc3c(O)cccc3Cl)cc12 [Compound 62, 2-(2-chloro-6-hydroxyphenyl)-N-(1-methoxy-5-sulfamoylisoquinolin-7-yl)acetamide] | 200 to 5000 nM
NS(=O)(=O)c1cc(NC(=O)Cc2ccccc2Cl)cc2cnc(OCCO)cc12 [Compound 76, 2-(2-chlorophenyl)-N-(3-(2-hydroxyethoxy)-5-sulfamoylisoquinolin-7-yl)acetamide] | 50 to 200 nM
CN1CCN(c2ccc3c(S(N)(=O)=O)cc(NC(=O)Cc4ccccc4Cl)cc3n2)CC1 [Compound 69, 2-(2-chlorophenyl)-N-(2-(4-methylpiperazin-1-yl)-5-sulfamoylquinolin-7-yl)acetamide] | 200 to 5000 nM
NS(=O)(=O)c1cc(NC(=O)Cc2ccccc2Cl)cc2c1CCN(C(=O)C1CCC1)C2 [Compound 107] | 10 to 50 nM
NS(=O)(=O)c1cc(NC(=O)Cc2ccccc2Cl)cc2cnccc12 [Compound 6] | 10 to 50 nM
COc1nccc2c(S(N)(=O)=O)cc(NC(=O)Cc3cc(F)c(F)cc3Cl)cc12 [Compound 27, 2-(2-chloro-4,5-difluorophenyl)-N-(1-methoxy-5-sulfamoylisoquinolin-7-yl)acetamide] | < 10 nM
COCCOc1cc2c(S(N)(=O)=O)cc(NC(=O)Cc3ccccc3Cl)cc2cn1 [Compound 84, 2-(2-chlorophenyl)-N-(3-(2-methoxyethoxy)-5-sulfamoylisoquinolin-7-yl)acetamide] | 50 to 200 nM
NS(=O)(=O)c1cc(NC(=O)Cc2ccccc2Cl)cc2cnc(F)cc12 [Compound 7, 2-(2-chlorophenyl)-N-(3-fluoro-5-sulfamoylisoquinolin-7-yl)acetamide] | 50 to 200 nM
NS(=O)(=O)c1cc(NC(=O)Cc2ccccc2Cl)cc2c(C(F)F)nccc12 [Compound 25, 2-(2-chlorophenyl)-N-(1-(difluoromethyl)-5-sulfamoylisoquinolin-7-yl)acetamide] | < 10 nM
Nc1ncc2c(S(N)(=O)=O)cc(NC(=O)Cc3ccccc3Cl)cc2n1 [Compound 39, N-(2-amino-5-sulfamoylquinazolin-7-yl)-2-(2-chlorophenyl)acetamide] | 200 to 5000 nM
COc1nccc2c(S(N)(=O)=O)cc(NC(=O)Cc3ccccc3C#N)cc12 [Compound 64, 2-(2-cyanophenyl)-N-(1-methoxy-5-sulfamoylisoquinolin-7-yl)acetamide] | 200 to 5000 nM
NS(=O)(=O)c1cc(NC(=O)Cc2ccccc2Cl)cc2c(OCF)nccc12 [Compound 61, 2-(2-chlorophenyl)-N-(1-(fluoromethoxy)-5-sulfamoylisoquinolin-7-yl)acetamide] | 50 to 200 nM

Compound | IC50
COc1cc2c(S(N)(=O)=O)cc(NC(=O)Cc3ccccc3Cl)cc2cn1 [Compound 75, 2-(2-chlorophenyl)-N-(3-methoxy-5-sulfamoylisoquinolin-7-yl)acetamide] | 50 to 200 nM
COc1ccc(Nc2cc3c(S(N)(=O)=O)cc(NC(=O)Cc4ccccc4Cl)cc3cn2)cc1 [Compound 81, 2-(2-chlorophenyl)-N-(3-((4-methoxyphenyl)amino)-5-sulfamoylisoquinolin-7-yl)acetamide] | 200 to 5000 nM
NS(=O)(=O)c1cc(NC(=O)Cc2ccccc2Cl)cc2c(C3CC3)nccc12 [Compound 23, 2-(2-chlorophenyl)-N-(1-cyclopropyl-5-sulfamoylisoquinolin-7-yl)acetamide] | < 10 nM
NS(=O)(=O)c1cc(NC(=O)Cc2ccccc2Cl)cc2cnc(Cl)cc12 [Compound 5, N-(3-chloro-5-sulfamoylisoquinolin-7-yl)-2-(2-chlorophenyl)acetamide] | 50 to 200 nM
NS(=O)(=O)c1cc(NC(=O)Cc2ccccc2Cl)cc2c1CCNC2 [Compound 98, 2-(2-chlorophenyl)-N-(5-sulfamoyl-1,2,3,4-tetrahydroisoquinolin-7-yl)acetamide] | 200 to 5000 nM
NS(=O)(=O)c1cc(NC(=O)Cc2ccccc2Cl)cc2ccc(F)nc12 [Compound 38, 2-(2-chlorophenyl)-N-(2-fluoro-8-sulfamoylquinolin-6-yl)acetamide] | 50 to 200 nM
NS(=O)(=O)c1cc(NC(=O)Cc2ccccc2Cl)cc2c1CCN(c1cc(Cl)c(F)cn1)C2 [Compound 118, N-(2-(4-chloro-5-fluoropyridin-2-yl)-5-sulfamoyl-1,2,3,4-tetrahydroisoquinolin-7-yl)-2-(2-chlorophenyl)acetamide] | 50 to 200 nM
NS(=O)(=O)c1cc(NC(=O)Cc2ccccc2Cl)cc2c(OC(F)F)nccc12 [Compound 28, 2-(2-chlorophenyl)-N-(1-(difluoromethoxy)-5-sulfamoylisoquinolin-7-yl)acetamide] | < 10 nM
CC(C)CCOc1nccc2c(S(N)(=O)=O)cc(NC(=O)Cc3ccccc3Cl)cc12 [Compound 15, 2-(2-chlorophenyl)-N-(1-(isopentyloxy)-5-sulfamoylisoquinolin-7-yl)acetamide] | 50 to 200 nM
NS(=O)(=O)c1cc(NC(=O)Cc2ccccc2Cl)cc2cnc(N3CCCCC3)cc12 [Compound 77, 2-(2-chlorophenyl)-N-(3-(piperidin-1-yl)-5-sulfamoylisoquinolin-7-yl)acetamide] | 50 to 200 nM
COc1nccc2c(S(N)(=O)=O)cc(NC(=O)Cc3c(Cl)ccc(F)c3F)cc12 [Compound 54, 2-(6-chloro-2,3-difluorophenyl)-N-(1-methoxy-5-sulfamoylisoquinolin-7-yl)acetamide] | 200 to 5000 nM
CCN1CCc2c(cc(NC(=O)Cc3ccccc3Cl)cc2S(N)(=O)=O)C1 [Compound 109, 2-(2-chlorophenyl)-N-(2-ethyl-5-sulfamoyl-1,2,3,4-tetrahydroisoquinolin-7-yl)acetamide] | 200 to 5000 nM
NS(=O)(=O)c1cc(NC(=O)Cc2ccccc2Cl)cc2cncc(F)c12 [Compound 18, 2-(2-chlorophenyl)-N-(4-fluoro-5-sulfamoylisoquinolin-7-yl)acetamide] | 50 to 200 nM
C=CC(F)(F)N1CCc2c(cc(NC(=O)Cc3ccccc3Cl)cc2S(N)(=O)=O)C1 [Compound 119, 2-(2-chlorophenyl)-N-(2-(1,1-difluoroallyl)-5-sulfamoyl-1,2,3,4-tetrahydroisoquinolin-7-yl)acetamide] | 200 to 5000 nM
NS(=O)(=O)c1cc(NC(=O)Cc2ccccc2Cl)cc2c1CCN(C(Cl)Cl)C2 [Compound 115, 2-(2-chlorophenyl)-N-(2-(dichloromethyl)-sulfamoyl-1,2,3,4-tetrahydroisoquinolin-7-yl)acetamide] | 200 to 5000 nM
NS(=O)(=O)c1cc(NC(=O)Cc2ccccc2Cl)cc2nc(OCCO)ccc12 [Compound 66, 2-(2-chlorophenyl)-N-(2-(2-hydroxyethoxy)-5-sulfamoylquinolin-7-yl)acetamide] | 50 to 200 nM
COc1nccc2c(S(N)(=O)=O)cc(NC(=O)Cc3cccc(F)c3Cl)cc12 [Compound 97, 2-(2-chloro-3-fluorophenyl)-N-(1-methoxy-5-sulfamoylisoquinolin-7-yl)acetamide] | 50 to 200 nM
NS(=O)(=O)c1cc(NC(=O)Cc2ccccc2Cl)cc2c(OCc3ccc(F)cc3)nccc12 [Compound 32, 2-(2-chlorophenyl)-N-(1-((4-fluorobenzyl)oxo)-5-sulfamoylisoquinolin-7-yl)acetamide] | 10 to 50 nM
NS(=O)(=O)c1cc(NC(=O)Cc2ccccc2Cl)cc2c(OC3CC3)nccc12 [Compound 10, 2-(2-chlorophenyl)-N-(1-cyclopropoxy-5-sulfamoylisoquinolin-7-yl)acetamide] | 10 to 50 nM
